Laboratory results from patent publication US9422293B2 (priority 2006, dated 2016).
Where a name gives a salt, the structure may show the parent alone.

The molecules below were run against rat TRPV1 (Rattus norvegicus (Rat), UniProt O35433). Conditions: read-out: Rat IC50.
rat TRPV1, sequence (O35433 whole entry): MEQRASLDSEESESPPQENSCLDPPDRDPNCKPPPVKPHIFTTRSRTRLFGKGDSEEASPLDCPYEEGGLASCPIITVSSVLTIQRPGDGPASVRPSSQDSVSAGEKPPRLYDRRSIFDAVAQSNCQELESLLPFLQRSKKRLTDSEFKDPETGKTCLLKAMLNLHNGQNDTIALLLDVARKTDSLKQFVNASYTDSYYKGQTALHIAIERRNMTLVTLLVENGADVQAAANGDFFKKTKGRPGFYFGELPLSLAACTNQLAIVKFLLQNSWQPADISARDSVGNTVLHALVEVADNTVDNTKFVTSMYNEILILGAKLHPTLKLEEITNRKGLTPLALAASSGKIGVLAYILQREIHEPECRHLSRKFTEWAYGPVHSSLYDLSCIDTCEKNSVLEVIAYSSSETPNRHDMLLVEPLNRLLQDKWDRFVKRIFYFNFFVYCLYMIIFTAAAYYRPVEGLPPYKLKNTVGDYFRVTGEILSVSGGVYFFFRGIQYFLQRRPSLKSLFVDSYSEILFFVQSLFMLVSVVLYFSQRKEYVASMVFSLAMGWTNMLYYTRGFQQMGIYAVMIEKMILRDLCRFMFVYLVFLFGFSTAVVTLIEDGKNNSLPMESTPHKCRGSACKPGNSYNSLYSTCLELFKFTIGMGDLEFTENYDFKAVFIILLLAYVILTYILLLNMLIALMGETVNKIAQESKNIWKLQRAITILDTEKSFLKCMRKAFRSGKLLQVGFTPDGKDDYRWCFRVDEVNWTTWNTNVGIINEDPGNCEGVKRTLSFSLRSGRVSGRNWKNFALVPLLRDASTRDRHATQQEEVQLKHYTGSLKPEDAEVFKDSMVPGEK
Work on COCc1nc2c(c(Nc3ccc(C(C)(C)C#N)cc3)n1)CCN(c1ncccc1C(F)(F)F)CC2 [Example 347, 2-Methyl-2-[4-({2-[(methyloxy)methyl]-7-[3-(trifluoromethyl)pyridin-2-yl]-6,7,8,9-tetrahydro-5H-pyrimido[4,5-d]azepin-4-yl}amino)phenyl]propanenitrile trifluoroacetic acid salt] yielded an IC50 of 1320 nM.
In the case of COC(=O)c1ccc(Nc2nc(N3CCCCC3)nc3c2CCN(c2ncccc2C(F)(F)F)CC3)cc1 [Example 387, 4-[2-Piperidin-1-yl-7-(3-trifluoromethyl-pyridin-2-yl)-6,7,8,9-tetrahydro-5H-pyrimido[4,5-d]azepin-4-ylamino]-benzoic acid methyl ester], the IC50 is reported as 550 nM.
Work on CC(C)(C)c1ccc(Nc2nc(N3CCC3)nc3c2CCN(c2ncccc2C(F)(F)F)CC3)cc1 [Example 249, 2-Azetidin-1-yl-N-[4-(1,1-dimethylethyl)phenyl]-7-[3-(trifluoromethyl)pyridin-2-yl]-6,7,8,9-tetrahydro-5H-pyrimido[4,5-d]azepin-4-amine] yielded an IC50 of 830 nM.
For CC(C)c1nc2c(c(Nc3ccc(C#N)cc3)n1)CCN(c1ncccc1C(F)(F)F)CC2 [Example 97, 4-[2-Isopropyl-7-(3-trifluoromethyl-pyridin-2-yl)-6,7,8,9-tetrahydro-5H-pyrimido[4,5-d]azepin-4-ylamino]-benzonitrile], the IC50 was 490 nM.
For CCCCOc1nc2c(c(Nc3ccc(C(F)(F)F)cc3)n1)CCN(c1ncccc1C(F)(F)F)CC2 [Example 343, 2-(Butyloxy)-N-[4-(trifluoromethyl)phenyl]-7-[3-(trifluoromethyl)pyridin-2-yl]-6,7,8,9-tetrahydro-5H-pyrimido[4,5-d]azepin-4-amine], the IC50 was 60 nM.
Molecule CC(C)c1nc2c(c(Nc3ccc(C(C)(C)C)cc3)n1)CCN(c1ncccc1C(F)(F)F)CC2 [Example 8, (4-tert-Butyl-phenyl)-[2-isopropyl-7-(3-trifluoromethyl-pyridin-2-yl)-6,7,8,9-tetrahydro-5H-pyrimido[4,5-d]azepin-4-yl]-amine] has an IC50 of 25 nM.
Cc1nc2ccccc2nc1N1CCc2nc(C(C)C)nc(Nc3ccc(C(C)(C)C)cc3)c2CC1 [Example 33, (4-tert-Butyl-phenyl)-[2-isopropyl-7-(3-methyl-quinoxalin-2-yl)-6,7,8,9-tetrahydro-5H-pyrimido[4,5-d]azepin-4-yl]-amine] was tested, and the IC50 was 110 nM.
Work on CC(C)N1CCC(Oc2nc3c(c(Nc4ccc(C(F)(F)F)cc4)n2)CCN(c2ncccc2C(F)(F)F)CC3)C1 (stereo not shown) [Example 315, 2-{[1-(1-Methylethyl)pyrrolidin-3-yl]oxy}-N-[4-(trifluoromethyl)phenyl]-7-[3-(trifluoromethyl)pyridin-2-yl]-6,7,8,9-tetrahydro-5H-pyrimido[4,5-d]azepin-4-amine] yielded an IC50 of 5520 nM.
CC(C)c1nc2c(c(Nc3ccc(C(F)(F)F)c(Cl)c3)n1)CCN(c1ncccc1C(F)(F)F)CC2 [Example 128, N-[3-Chloro-4-(trifluoromethyl)phenyl]-2-(1-methylethyl)-7-[3-(trifluoromethyl)pyridin-2-yl]-6,7,8,9-tetrahydro-5H-pyrimido[4,5-d]azepin-4-amine] showed an IC50 of 150 nM.
FC(F)(F)c1ccc(Nc2nc(N3CCCCC3)nc3c2CCN(c2ncccc2C(F)(F)F)CC3)nc1Cl [Example 390, (6-Chloro-5-trifluoromethyl-pyridin-2-yl)-[2-piperidin-1-yl-7-(3-trifluoromethyl-pyridin-2-yl)-6,7,8,9-tetrahydro-5H-pyrimido[4,5-d]azepin-4-yl]-amine] gave an IC50 of 90 nM.
For Cc1cnc(Nc2nc(C(C)C)nc3c2CCN(c2ncccc2C(F)(F)F)CC3)cn1 [Example 187, 2-(1-Methylethyl)-N-(5-methylpyrazin-2-yl)-7-[3-(trifluoromethyl)pyridin-2-yl]-6,7,8,9-tetrahydro-5H-pyrimido[4,5-d]azepin-4-amine hydrochloride salt], the IC50 was 2850 nM.
Work on O=S(=O)(c1ccc(Nc2nc(OC3CCCCC3)nc3c2CCN(c2ncccc2C(F)(F)F)CC3)cc1)C(F)(F)F [Example 308, 2-(Cyclohexyloxy)-7-[3-(trifluoromethyl)pyridin-2-yl]-N-{4-[(trifluoromethyl)sulfonyl]phenyl}-6,7,8,9-tetrahydro-5H-pyrimido[4,5-d]azepin-4-amine] yielded an IC50 of 360 nM.
For CC(C)c1nc2c(c(Nc3ccc(C(F)(F)F)cc3)n1)CCN(c1ncc([N+](=O)[O-])cc1C(F)(F)F)CC2 [Example 291, 2-(1-Methylethyl)-7-[5-nitro-3-(trifluoromethyl)pyridin-2-yl]-N-[4-(trifluoromethyl)phenyl]-6,7,8,9-tetrahydro-5H-pyrimido[4,5-d]azepin-4-amine], the IC50 was 170 nM.
With CC(C)c1nc2c(c(Nc3ccc(C(C)(C)C(=O)O)cc3)n1)CCN(c1ncccc1C(F)(F)F)CC2 [Example 184, 2-Methyl-2-[4-({2-(1-methylethyl)-7-[3-(trifluoromethyl)pyridin-2-yl]-6,7,8,9-tetrahydro-5H-pyrimido[4,5-d]azepin-4-yl}amino)phenyl]propanoic acid] the IC50 was 1950 nM.
Work on FC(F)(F)c1ccc(Nc2nc(N3CCOCC3)nc3c2CCN(c2ncccc2C(F)(F)F)CC3)cc1Cl [Example 381, (3-Chloro-4-trifluoromethyl-phenyl)-[2-morpholin-4-yl-7-(3-trifluoromethyl-pyridin-2-yl)-6,7,8,9-tetrahydro-5H-pyrimido[4,5-d]azepin-4-yl]-amine] yielded an IC50 of 40 nM.
NC(=O)c1cccnc1N1CCc2ncnc(Nc3ccc(C(F)(F)F)cc3)c2CC1 [Example 294, 2-(4-{[4-(Trifluoromethyl)phenyl]amino}-5,6,8,9-tetrahydro-7H-pyrimido[4,5-d]azepin-7-yl)pyridine-3-carboxamide trifluoroacetic acid salt] gave an IC50 of 2940 nM.
In the case of CC(C)c1nc2c(c(NC3CCC(C(C)(C)C)CC3)n1)CCN(c1ncccc1C(F)(F)F)CC2 (stereo not shown) [Example 122, N-[4-(1,1-Dimethylethyl)cyclohexyl]-2-(1-methylethyl)-7-[3-(trifluoromethyl)pyridin-2-yl]-6,7,8,9-tetrahydro-5H-pyrimido[4,5-d]azepin-4-amine], the IC50 is reported as 190 nM.
In the case of CN(C)c1ccc(Nc2nc(N(C)C)nc3c2CCN(c2ncccc2C(F)(F)F)CC3)cc1 [Example 79B, N^4-(4-Dimethylamino-phenyl)-N^2,N^2-dimethyl-7-(3-trifluoromethyl-pyridin-2-yl)-6,7,8,9-tetrahydro-5H-pyrimido[4,5-d]azepine-2,4-diamine trifluoroacetic acid salt], the IC50 is reported as 1300 nM.
With FC(F)(F)c1ccc(Nc2nc(N3CCCOCC3)nc3c2CCN(c2ncccc2C(F)(F)F)CC3)cc1Cl [Example 245, N-[3-Chloro-4-(trifluoromethyl)phenyl]-2-(1,4-oxazepan-4-yl)-7-[3-(trifluoromethyl)pyridin-2-yl]-6,7,8,9-tetrahydro-5H-pyrimido[4,5-d]azepin-4-amine trifluoroacetic acid salt] the IC50 was 20 nM.
CSc1nc2c(c(Nc3ccc(C(F)(F)F)cc3C)n1)CCN(c1ncccc1C(F)(F)F)CC2 [Example 204, 2-(Methylsulfanyl)-N-[2-methyl-4-(trifluoromethyl)phenyl]-7-[3-(trifluoromethyl)pyridin-2-yl]-6,7,8,9-tetrahydro-5H-pyrimido[4,5-d]azepin-4-amine] gave an IC50 of 560 nM.
Work on FC(F)(F)c1ccc(Nc2nc(N3CCCCC3)nc3c2CCN(c2ncccc2C(F)(F)F)CC3)cc1Cl [Example 233, N-[3-Chloro-4-(trifluoromethyl)phenyl]-2-piperidin-1-yl-7-[3-(trifluoromethyl)pyridin-2-yl]-6,7,8,9-tetrahydro-5H-pyrimido[4,5-d]azepin-4-amine trifluoroacetic acid salt] yielded an IC50 of 170 nM.
Work on CC(C)(C)c1ccc(Nc2nc(CN3CCCCC3)nc3c2CCN(c2ncccc2C(F)(F)F)CC3)cc1 [Example 66B, (4-tert-Butyl-phenyl)-[2-piperidin-1-ylmethyl-7-(3-trifluoromethyl-pyridin-2-yl)-6,7,8,9-tetrahydro-5H-pyrimido[4,5-d]azepin-4-yl]-amine trifluoroacetic acid salt] yielded an IC50 of 930 nM.
FC(F)(F)c1ccc(Nc2nc(N3C4CCC3CC4)nc3c2CCN(c2ncccc2C(F)(F)F)CC3)cc1 [Example 268, 2-(7-Azabicyclo[2.2.1]hept-7-yl)-N-[4-(trifluoromethyl)phenyl]-7-[3-(trifluoromethyl)pyridin-2-yl]-6,7,8,9-tetrahydro-5H-pyrimido[4,5-d]azepin-4-amine] was tested, and the IC50 was 150 nM.
Molecule Cc1cc(C(F)(F)F)ccc1Nc1nc(SCc2ccccc2)nc2c1CCN(c1ncccc1C(F)(F)F)CC2 [Example 364, N-[2-Methyl-4-(trifluoromethyl)phenyl]-2-[(phenylmethyl)sulfanyl]-7-[3-(trifluoromethyl)pyridin-2-yl]-6,7,8,9-tetrahydro-5H-pyrimido[4,5-d]azepin-4-amine] has an IC50 of 1180 nM.
Molecule FC(F)(F)c1ccc(Nc2nc(-c3ccoc3)nc3c2CCN(c2ncccc2C(F)(F)F)CC3)cc1 [Example 146, 2-Furan-3-yl-N-[4-(trifluoromethyl)phenyl]-7-[3-(trifluoromethyl)pyridin-2-yl]-6,7,8,9-tetrahydro-5H-pyrimido[4,5-d]azepin-4-amine] has an IC50 of 720 nM.
Cc1cc(C(F)(F)F)ccc1Nc1nc(OC2CCOC2)nc2c1CCN(c1ncccc1C(F)(F)F)CC2 (stereo not shown) [Example 313, N-[2-Methyl-4-(trifluoromethyl)phenyl]-2-(tetrahydrofuran-3-yloxy)-7-[3-(trifluoromethyl)pyridin-2-yl]-6,7,8,9-tetrahydro-5H-pyrimido[4,5-d]azepin-4-amine] showed an IC50 of 560 nM.
FC(F)(F)c1ccc(Nc2nc(-c3ccccn3)nc3c2CCN(c2ncccc2C(F)(F)F)CC3)cc1 [Example 172, 2-Pyridin-2-yl-N-[4-(trifluoromethyl)phenyl]-7-[3-(trifluoromethyl)pyridin-2-yl]-6,7,8,9-tetrahydro-5H-pyrimido[4,5-d]azepin-4-aminele 1 trifluoroacetic acid salt] showed an IC50 of 130 nM.
With FC1(F)CCN(c2nc3c(c(Nc4ccc(C(F)(F)F)cc4)n2)CCN(c2ncccc2C(F)(F)F)CC3)C1 [Example 243, 2-(3,3-Difluoropyrrolidin-1-yl)-N-[4-(trifluoromethyl)phenyl]-7-[3-(trifluoromethyl)pyridin-2-yl]-6,7,8,9-tetrahydro-5H-pyrimido[4,5-d]azepin-4-amine trifluoroacetic acid salt] the IC50 was 450 nM.
